Measurements as given in article PMC9038752, “Molecular mechanisms of bifunctional vitamin D receptor agonist-histone deacetylase inhibitor hybrid molecules in triple-negative breast cancer” (Scientific Reports, 2022).

Tests used:
[1] = test system: tubulin acetylation (HDAC6); test: Western blotting of tubulin acetylation in 4TO7 cells; type: cell-based, mouse; conditions: 6 h, western blot
Procedure: The hybrids were assessed to determine their HDACi and VDR agonist activity as well as their antiproliferative properties relative to DK-406. HDACi activity was assessed in vitro using an acetylated lysine substrate that releases a fluorescent reporter upon HDACi deacetylation and subsequent trypsin digestion. Increasing sidechain length of pyrimidine hybrids enhanced the potency of HDAC6 inhibition, with several compounds inhibiting HDAC6 with a sub-micromolar IC50, similar to that of DK-406 (Fig. 4a). […] Next, we analyzed the effects of compounds on levels of H3K9 and H3K27 acetylation in 4TO7 cells, which are controlled by class I HDACs[29],[30]. […] We also tested the capacity of analogues to induce tubulin acetylation, controlled by class II enzyme HDAC6[32], in 4TO7 cells. […]
Figure 4 (a) Results of in vitro assays for inhibition of purified HDAC2 and HDAC6 by DK-406 and heterocyclic hybrids as measured by inhibition of deacetylation of a fluorometric substrate (see Methods for details). […]
After treatments, 4T07 cells were solubilized in Lysis Buffer (20 mM Tris, pH 8, 150 mM NaCl, 1% Triton X-100, 3,5 mM SDS, 13 mM deoxycholic acid) and proteins extracted were separated on a 4–15% Tris/Glycine/SDS gel (BIO RAD). […] Signal was detected using Clarity ECL chemiluminescent substrates (Bio-Rad) and ChemiDoc Imaging System from the same company was used to quantify the intensity of bands. […]

4TO7 cells = test: RNAseq gene expression profiling in 4TO7 cells; type: cell-based, mouse; conditions: relative to control
Procedure: Cells were treated for 6 h to focus more on genes directly regulated by the VDR, or for 24 or 48 h to gain insight into longer-term effects on gene expression.
McGill Genome Centre performed a quality control before sequencing in paired-end at 50 M reads by Illumina NovaSeq 6000 S4 PE100. Sets of genes regulated in the different conditions were sent to us and downstream analysis were performed.
Table S1 and Table S2 : See Excel files with RNAseq results and analysis
48 hours prior to RNA extraction. Samples were prepared in triplicate and run on Illumina NovaSeq 6000 S4
PE100. For assessing differential gene expression for RNAseq data, the LIMMA package inR was used.
RNAseq results and statistical analyses from D, S, S+D, DK-406, and AM-193 conditions measured relative to
AM-193 for 6 or 24 hours prior to RNA extraction . Samples were prepared in triplicate and run on Illumina
NovaSeq 6000 S4 PE100. For assessing differential gene expression for RNAseq data, the LIMMA package in R was […]

[2] = 6 h, RNAseq Supplemental table 2, 1 µM AM-193, 10 µM DK-406, 100 nM 1,25D and SAHA
[3] = RNAseq Supplemental table 2, 1 µM AM-193, 10 µM DK-406, 100 nM 1,25D and SAHA
[4] = 6 h, RNAseq Supplemental table 1
[5] = 48 h, RNAseq Supplemental table 1

SMILES	Aaas 6h Log Fold (4TO7 cells; [2])	Aacs 6h Log Fold (4TO7 cells; [2])	Aagab 6h Log Fold (4TO7 cells; [2])	Aak1 6h Log Fold (4TO7 cells; [2])	Aamdc 6h Log Fold (4TO7 cells; [2])	Aaas 24h Log Fold (4TO7 cells; [3])	Aacs 24h Log Fold (4TO7 cells; [3])	Aagab 24h Log Fold (4TO7 cells; [3])	Aak1 24h Log Fold (4TO7 cells; [3])	Aamdc 24h Log Fold (4TO7 cells; [3])	further results
CCC(CC)(c1ccc(OCCCCCC(=O)NO)cc1)c1ccc(OCC(O)C(C)(C)C)c(C)n1 (centres unmarked) [AM-193]	-0.023	0.016	0.124	0.035	-0.120	-0.051	0.142	0.131	0.036	-0.210	tubulin acetylation ([1]; 10^–6 M): consistently induced tubulin acetylation
CCC(CC)(c1ccc(C(=O)NCCCCCC(=O)NO)cc1)c1ccc(OCC(O)C(C)(C)C)c(C)c1 (centres unmarked) [DK-406]	0.00118	-0.179	-0.076	0.090	-0.107	-0.047	0.139	0.108	0.086	-0.190	tubulin acetylation ([1]; 10^–5 M): consistently induced tubulin acetylation; Aaas 6h Log Fold (4TO7 cells; [4]): 1.019; Aacs 6h Log Fold (4TO7 cells; [4]): 1.048; Aaed1 6h Log Fold (4TO7 cells; [4]): -1.030; Aagab 6h Log Fold (4TO7 cells; [4]): -1.033; Aak1 6h Log Fold (4TO7 cells; [4]): 1.122; Aaas 48h Log Fold (4TO7 cells; [5]): -1.331; Aacs 48h Log Fold (4TO7 cells; [5]): 1.275; Aaed1 48h Log Fold (4TO7 cells; [5]): -1.421; Aagab 48h Log Fold (4TO7 cells; [5]): 1.489; Aak1 48h Log Fold (4TO7 cells; [5]): -1.002
